According to US20080267948A1, “Croos-B Structure Binding Compounds” (priority 2005, published 2008):

T1: factor XII (Homo sapiens, UniProt P00748)
T1 sequence (P00748 20-615): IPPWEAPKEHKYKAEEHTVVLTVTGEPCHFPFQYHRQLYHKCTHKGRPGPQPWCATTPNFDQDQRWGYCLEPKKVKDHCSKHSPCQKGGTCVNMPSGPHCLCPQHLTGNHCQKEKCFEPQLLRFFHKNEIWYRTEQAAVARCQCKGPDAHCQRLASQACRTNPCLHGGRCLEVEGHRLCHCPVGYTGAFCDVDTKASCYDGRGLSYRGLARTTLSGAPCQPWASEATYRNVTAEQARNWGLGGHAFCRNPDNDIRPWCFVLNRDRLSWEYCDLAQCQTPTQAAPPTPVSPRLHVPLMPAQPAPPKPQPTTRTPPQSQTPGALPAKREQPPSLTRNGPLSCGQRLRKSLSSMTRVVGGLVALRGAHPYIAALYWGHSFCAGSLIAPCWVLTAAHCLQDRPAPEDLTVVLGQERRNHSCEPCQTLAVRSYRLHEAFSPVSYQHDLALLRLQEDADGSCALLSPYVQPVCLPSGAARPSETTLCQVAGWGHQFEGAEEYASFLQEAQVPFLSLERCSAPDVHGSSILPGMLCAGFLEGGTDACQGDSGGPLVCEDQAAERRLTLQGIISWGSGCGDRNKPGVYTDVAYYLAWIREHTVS


How the values were obtained:
amyloid γ-globulins = experiment: Inhibition ELISA of monoclonal 7H2H2 binding to immobilized amyloid γ-globulins; set-up: species or system human
Protocol: When binding of a monoclonal antibody to an aggregate with amyloid-like properties was confirmed, the influence of Congo red on this interaction was tested as follows. Amyloid γ-globulins were coated onto a high-binding plate (Greiner Microlon, Bio-One GmbH, Frickenhausen, Germany), blocked with Roche blocking reagent, and overlayed with 10 times diluted hybridoma cell culture medium with a concentration series of Congo red. In addition, the inhibitory effect of compounds with cross-(structure conformation on binding of a monoclonal antibody to immobilized cross-β structure conformation comprising antigens was tested with an ELISA set-up. For this purpose, a limiting amount of antigen, i.e. 0.5 μg ml^−1 amyloid γ-globulins, was immobilized onto a Greiner high-binding plate. It was determined that 80 times diluted hybridoma cell culture supernatant contains an amount of antibody that results in less than maximal signal when used in ELISAs with immobilized proteins with cross-β structure conformation (not shown). Now, concentration series of freshly dissolved-, amyloid-, acid-denatured- and base-denatured γ-globulins at 0.1, 1, 10 and 100 μg ml^−1 was added to the 80 times diluted hybridoma cell culture supernatant, and used to overlay the immobilized amyloid γ-globulins. The amount of bound antibody was determined with RAMPO. […]

[1] = molecular target: T2, Hb-AGE (glucose-6-phosphate modified human haemoglobin) (Homo sapiens, UniProt P68871+P69905); experiment: ELISA binding of tPA to immobilized Hb-AGE, compounds co-incubated with tPA; details: dye included in the tPA solution
T2 construct: purchased Sigma-Aldrich H7379
Protocol: The small compound library is depicted in Tables 4-5. […] Binding experiments were performed in single wells per compound, in a duplicate experiment. Binding data obtained with this duplicate experiment was averaged.
• 1. […] Coat buffer in control wells. • 2. wash three times with wash buffer • 3. Block all wells with 300 μl 0.5*recommended concentration Roche blocking reagent for 30 minutes at room temperature, with agitation • 4. wash twice • 5. […] Incubate for 30 minutes at room temperature, with agitation • 7. wash five times with TBS/0.1% Tween20 • 8. […] Incubate for 30 minutes at room temperature, with agitation • 10. wash five times with TBS/0.1% Tween20 • 11. Fill wells with 3000× diluted horse raddish peroxidase-labeled polyclonal rabbit anti-mouse antibody (RAMPO, DAKOCytomation) • 12. Incubate for 20 minutes at room temperature, with agitation • 13. Wash five times with TBS/0.1% Tween20 • 14. Wash twice with PBS • 15. Stain with 100 μl TMB, stop with 50 μl 10% H2SO4 • 16. Read absorbance at 450 nm

[2] = tested on: amyloid-β and glycated albumin; experiment: ELISA binding of tPA to immobilized amyloid-β and glycated albumin with Congo red or ThT; details: concentration series of dye
Protocol: After 5 washes with wash buffer followed by two washes with PBS, binding of antibodies was assessed. […] Triplicates were averaged and standard deviations calculated.

[3] = molecular target: T3, glycated haemoglobin (Hb-AGE) (Homo sapiens, UniProt P68871+P69905); experiment: ELISA binding of IgIV to immobilized Hb-AGE and inhibition studies; details: 15 μg/ml IgIV, concentration series of competitor
T3 construct: purchased Sigma-Aldrich H7379
Protocol: Binding of IgIV was determined using an enzyme linked immunosorbent assay (ELISA) set-up. For this purpose 50 μl/well of potential ligands at indicated concentrations or coat buffer only for control and background measurement purposes, were coated overnight at 4° C., with motion, in 50 mM NaHCO3 pH 9.6. Glycated albumin and Hb (BSA-AGE and Hb-AGE), control BSA and control Hb were coated at 5 μg/ml. The BSA and Hb controls were prepared freshly by dissolving lyophilized proteins at 1 mg/ml in PBS upon resuspending by pipetting, followed by a 30′ period at the roller bank, at room temperature. The protein solutions were centrifuged for 10′ at 16,000*g and diluted in coat buffer. Coat controls were performed with anti-glycated protein antibody, anti-albumin antibody, anti-Hb antibody. The alkaline phosphatase-conjugated anti-human Ig antibodies were controlled by coating the IgIV's and overlaying them the secondary antibodies. After coating the plates were washed twice with 50 mM Tris-HCl pH 7.3, 150 mM NaCl, 0.1% v/v Tween20, and blocked with 175 μl/well Blocking reagent (Roche Diagnostics, Almere, The Netherlands; catalogue number 11112589001), for 1 h at room temperature, with motion. Plates were washed twice and incubated in triplicate with indicated antibodies dilution series, plasma dilution series or controls, including binding buffer only, in the absence or presence of putative inhibitors, in binding buffer; PBS/0.1% v/v Tween20, at 50 μl/well, for 1 h at room temperature, with constant motion. After four wash cycles, secondary antibodies were added to the wells, 50 μl/well, for 45′ at room temperature, with motion. RAMPO and SWARPO were used at 2000 times dilution, goat anti-human IgG antibodies were diluted 3000 times, goat anti-human IgM antibodies were diluted 1000 times. After 5 washes with wash buffer followed by two washes with PBS, binding of antibodies was assessed. […] After 5′ absorbance was read at 405 nm. […] After 5′ absorbance was read at 490 nm. […] Triplicates were averaged and standard deviations calculated. […]

factor XII = molecular target: T1, factor XII; experiment: ELISA binding of β2GPI to immobilized factor XII; set-up: human factor XII from plasma (Calbiochem); purchased Calbiochem; host or cells: human plasma
Protocol: (§1) Binding of β2GPI was assessed with monoclonal antibody 2B2^17.

[4] = tested on: anti-β2GPI auto-antibodies from antiphospholipid syndrome patients; experiment: Interference with binding of anti-β2GPI autoantibodies to immobilized β2GPI; set-up: species or system human; details: concentration series of β2GPI in solution
Protocol: β2GPI by recombinant β2GPI and not by plasma derived β2GPI When plasma derived β2GPI is coated onto hydrophilic ELISA plates, anti-β2GPI auto-antibodies isolated from plasma of antiphospholipid syndrome autoimmune patients can bind^18. To study the influence of coincubations of the coated β2GPI with the antibodies together with plasma β2GPI or recombinant β2GPI, concentration series of β2GPI were added to the patient antibodies. Subsequently, binding of the antibodies to coated β2GPI was determined.

tPA = tPA (Homo sapiens, UniProt P00750); experiment: ELISA binding of β2GPI to immobilized tPA
Protocol: as §1

T2 sequence (P69905 2-142 limits assumed): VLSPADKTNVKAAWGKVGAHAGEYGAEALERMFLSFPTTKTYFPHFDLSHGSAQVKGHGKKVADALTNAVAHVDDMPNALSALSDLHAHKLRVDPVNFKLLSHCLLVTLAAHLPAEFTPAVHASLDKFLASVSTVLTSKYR
T2 sequence (P68871 2-147 limits assumed): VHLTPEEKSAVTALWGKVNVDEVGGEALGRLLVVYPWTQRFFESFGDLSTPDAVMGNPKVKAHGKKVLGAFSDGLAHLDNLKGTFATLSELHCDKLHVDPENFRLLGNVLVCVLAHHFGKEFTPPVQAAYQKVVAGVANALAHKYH
T3 sequence (P69905 2-142 limits assumed): as the sequence (P69905 2-142 limits assumed) above
T3 sequence (P68871 2-147 limits assumed): as the sequence (P68871 2-147 limits assumed) above
tPA, sequence (P00750 36-562): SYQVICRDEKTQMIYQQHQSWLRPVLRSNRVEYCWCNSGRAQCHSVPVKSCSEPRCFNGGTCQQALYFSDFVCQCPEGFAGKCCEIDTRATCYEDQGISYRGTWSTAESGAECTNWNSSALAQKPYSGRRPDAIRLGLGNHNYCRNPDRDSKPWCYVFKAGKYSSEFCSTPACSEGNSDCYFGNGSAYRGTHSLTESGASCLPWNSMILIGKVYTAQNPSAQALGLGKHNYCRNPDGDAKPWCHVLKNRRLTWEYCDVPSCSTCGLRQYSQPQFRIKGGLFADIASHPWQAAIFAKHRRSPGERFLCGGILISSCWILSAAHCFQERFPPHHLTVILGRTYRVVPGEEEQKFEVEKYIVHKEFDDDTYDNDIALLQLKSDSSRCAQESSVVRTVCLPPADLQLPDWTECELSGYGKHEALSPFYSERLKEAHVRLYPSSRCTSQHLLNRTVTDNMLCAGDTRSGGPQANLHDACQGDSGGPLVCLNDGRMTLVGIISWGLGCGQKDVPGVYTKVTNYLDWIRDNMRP

inhibition of 7H2H2 binding to amyloid γ-globulins (amyloid γ-globulins; 500 μM Congo red, diluted 7H2H2 cell culture medium)	Congo red concentrations that inhibit binding of 7H2H2 (amyloid γ-globulins; 7H2H2 from 10 times diluted culture medium)	influence on binding of tPA to immobilized misfolded protein [1]	inhibition of tPA binding to immobilized amyloid-β and glycated albumin [2]	influence on binding of IgIV to immobilized Hb-AGE [3]	binding to factor XII (factor XII)	inhibition of binding of anti-β2GPI auto-antibodies to immobilized β2GPI [4]	binding to tPA (tPA)	Molecule
approximately 66%	higher than 5 μM	inhibits binding of tPA	effectively inhibited	fully blocks IgIV binding				Nc1c(/N=N/c2ccc(-c3ccc(/N=N/c4cc(S(=O)(=O)O)c5ccccc5c4N)cc3)cc2)cc(S(=O)(=O)O)c2ccccc12 [Congo red]
		promotes binding of tPA	not by ThT	enhance the binding of IgIV				Cc1ccc2c(c1)sc(-c1ccc(N(C)C)cc1)[n+]2C.[Cl-] [Thioflavin T]
					not bind	has a minor effect on antibody binding	not bind	plasma β2GPI: β2-glycoprotein I purified from fresh human plasma (protein, UniProt P02749 20-345, looked up) Beta-2-glycoprotein 1: GRTCPKPDDLPFSTVVPLKTFYEPGEEITYSCKPGYVSRGGMRKFICPLTGLWPINTLKCTPRVCPFAGILENGAVRYTTFEYPNTISFSCNTGFYLNGADSAKCTEEGKWSPELPVCAPIICPPPSIPTFATLRVYKPSAGNNSLYRDTAVFECLPQHAMFGNDTITCTTHGNWTKLPECREVKCPFPSRPDNGFVNYPAKPTLYYKDKATFGCHDGYSLDGPEEIECTKLGNWSAMPSCKASCKVPVKKATVVYQGERVKIQEKFKNGMLHGDKVSFFCKNKEKKCSYTEDAQCIDGTIEVPKCFKEHSSLAFWKTDASDVKPC
